Paper PMC11714206, “Massively Parallel Screening of Toll/Interleukin‐1 Receptor (TIR)‐Derived Peptides Reveals Multiple Toll‐Like Receptors (TLRs)‐Targeting Immunomodulatory Peptides” (Advanced Science, 2024)
One block for each sequence: values may come before it.

Target: T1, MyD88^TIR (Homo sapiens, UniProt Q99836)
T1 construct: MyD88 (residues 148–296); 6xHis; made in house; host or cells: E. coli BL21 (DE3)
Experiment: T‐Surf phage library (P8 and P3) selection against MyD88^TIR, four rounds, NGS read counts
Assay type: binding
Settings: for P8_MyD88 Rank (after) / P8_MyD88 Rank (before): P8 library; for Population: 4th round of selection against MyD88 TIR, share of NGS reads; for P3_MyD88 Rank (after) / P3_MyD88 Rank (before): P3 library
Method in brief: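 Coat TIR domain 5 µg mL^−1 overnight; block 0.2% BSA/PBS 1 h, 4 °C; add phage library 1 h, RT; wash ×4 PBS/0.5% Tween‐20; elute 100 mM HCl, neutralize Tris; amplify in TG1, PEG‐precipitate. Repeat to round 4; barcode PCR, NovaSeq, count reads.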

[1] = P8_MyD88: rank by NGS read count after grouping
[2] = P8_MyD88: rank by NGS read count before grouping
[3] = P8_MyD88: rank by count after grouping
[4] = P8_MyD88: rank by count before grouping
[5] = selection against MyD88, rank by count after grouping
[6] = selection against MyD88, rank by count before grouping
[7] = 4R selection against MyD88, rank after grouping
[8] = 4R selection against MyD88, rank before grouping
[9] = selection against MyD88 TIR, rank by count after grouping
[10] = selection against MyD88 TIR, rank by count before grouping
[11] = selection against MyD88, rank after grouping
[12] = selection against MyD88, rank before grouping
[13] = P8_MyD88 pool: P8 T-Surf phage library
[14] = P3_MyD88: rank by count after grouping
[15] = P3_MyD88: rank by count before grouping
[16] = P3_MyD88 pool: P3 T-Surf phage library

T1 sequence (Q99836 148-296): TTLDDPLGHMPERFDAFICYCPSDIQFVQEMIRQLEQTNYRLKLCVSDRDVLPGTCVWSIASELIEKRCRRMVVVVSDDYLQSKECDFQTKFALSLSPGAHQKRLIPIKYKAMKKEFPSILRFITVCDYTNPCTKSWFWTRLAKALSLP

Sequence: DWVCDYLLPDREGPAG
Rank (after) [1]: 984
Rank (before) [2]: 2474

Sequence: DWVLGYRLPNLEGPAG
P8_MyD88 Rank (after) [5]: 741
P8_MyD88 Rank (before) [6]: 2395

Sequence: DWVWDELLKILYANETM
P8_MyD88 Rank (after) [7]: 647
P8_MyD88 Rank (before) [8]: 2457

Sequence: DWVWDYLLPIWKAQR
P8_MyD88 Rank (after) [5]: 704
P8_MyD88 Rank (before) [6]: 2449

Sequence: DWVWDYLLPNGRPSG
Rank (after) [1]: 987
Rank (before) [2]: 2420

Sequence: DWVWDYLLPNLEGHAT
Rank (after) [1]: 904
Rank (before) [2]: 2439

Sequence: DWVWDYLLPNLEGQR
P8_MyD88 Rank (after) [9]: 264
P8_MyD88 Rank (before) [10]: 550

Sequence: DWVWDYLLQSGRPSG
Rank (after) [1]: 932
Rank (before) [2]: 2451

Sequence: DWVWDYMLTNLEGPAG
P8_MyD88 Rank (after) [5]: 708
P8_MyD88 Rank (before) [6]: 2455

Sequence: DWVWEYLLPNVERPEG
Rank (after) [1]: 880
Rank (before) [2]: 2458

Sequence: DWVWVYLLPNLEGPEG
P8_MyD88 Rank (after) [7]: 641
P8_MyD88 Rank (before) [8]: 2402

Sequence: DWVWVYRLPNLEGPAG
Rank (after) [1]: 979
Rank (before) [2]: 2403

Sequence: DYASSSWALDVLWNIF
Rank (after) [1]: 950
Rank (before) [2]: 2507

Sequence: DYASSWWALDELLRILY
P8_MyD88 Rank (after) [7]: 650
P8_MyD88 Rank (before) [8]: 2504

Sequence: DYASSWWALEEMAKIM
Rank (after) [3]: 177
Rank (before) [4]: 202

Sequence: DYASYDDNDYYWVTHVLLRHL
Rank (after) [3]: 439
Rank (before) [4]: 1058

Sequence: EAFAVHENISKKTLK
P3_MyD88 Rank (after) [7]: 611
P3_MyD88 Rank (before) [8]: 2194

Sequence: EAFAVHVWSSKANSLVG
P3_MyD88 Rank (after) [5]: 727
P3_MyD88 Rank (before) [6]: 2193

Sequence: EIARQLLSEYLNIAVY
Rank (after) [3]: 131
Rank (before) [4]: 142
Population [13]: 0.0116%

Sequence: ELDFASNMEQFWDRLYY
Rank (after) [1]: 935
Rank (before) [2]: 3177

Sequence: ELDFSHFWLFDGDAGEEP
P8_MyD88 Rank (after) [9]: 229
P8_MyD88 Rank (before) [10]: 476

Sequence: ELDFSHFWLFDGHAGGEA
Population [13]: 0.02%

Sequence: ELDFSHFWLFDGHATGEA
Population [13]: 0.0177%

Sequence: ELDFSHFWLFDGQAGGAA
Rank (after) [1]: 917
Rank (before) [2]: 3182

Sequence: ELDFSHFWLFDGQSGKDA
P8_MyD88 Rank (after) [9]: 216
P8_MyD88 Rank (before) [10]: 359

Sequence: ELDFSHFWLFEAGGDA
Population [13]: 0.02%

Sequence: ELDFSHFWLFEARGDA
Population [13]: 0.0224%

Sequence: ELDFSHFWLFEGHATGEA
Rank (after) [3]: 127
Rank (before) [4]: 141
Population [13]: 0.0116%

Sequence: ELWVLRYLLPTLEEQQ
Rank (after) [3]: 157
Rank (before) [4]: 173
Population [13]: 0.00809%

Sequence: ENYAFSSWALGELLHI
P8_MyD88 Rank (after) [9]: 192
P8_MyD88 Rank (before) [10]: 247

Sequence: ERLFIETQNVNKDLIG
P3_MyD88 Rank (after) [9]: 264
P3_MyD88 Rank (before) [10]: 2209

Sequence: ESILNHMRRSSQSIAN
Rank (after) [14]: 481
Rank (before) [15]: 2231

Sequence: EWALHQLQQIIKWHQT
P8_MyD88 Rank (after) [9]: 212
P8_MyD88 Rank (before) [10]: 323

Sequence: EWFYERLFSQMRKDIK
P8_MyD88 Rank (after) [9]: 275
P8_MyD88 Rank (before) [10]: 586

Sequence: EWGDPYFWSKLRYAM
P3_MyD88 Rank (after) [5]: 695
P3_MyD88 Rank (before) [6]: 2125

Sequence: EWILSKLSQHILKREK
P3_MyD88 Rank (after) [7]: 632
P3_MyD88 Rank (before) [8]: 2128

Sequence: EWIREQLCLALKERLP
P3_MyD88 Rank (after) [7]: 637
P3_MyD88 Rank (before) [8]: 2133

Sequence: EWIREQLHPALNERLP
P3_MyD88 Rank (after) [5]: 742
P3_MyD88 Rank (before) [6]: 2176

Sequence: EWIREQLRPALDELVL
Rank (after) [14]: 165
Rank (before) [15]: 648

Sequence: EWIREQLRPALKAQ
Rank (after) [14]: 147
Rank (before) [15]: 651

Sequence: EWIREQLRPALKERL
Rank (after) [14]: 112
Rank (before) [15]: 995

Sequence: EWIREQLRPALKNGW
Rank (after) [14]: 434
Rank (before) [15]: 2155

Sequence: EWIREQLRPALKNVC
P3_MyD88 Rank (after) [11]: 520
P3_MyD88 Rank (before) [12]: 2142

Sequence: EWIREQLRPELQERLP
Rank (after) [14]: 179
Rank (before) [15]: 2160

Sequence: EWIREQRRSALKERLP
P3_MyD88 Rank (after) [7]: 639
P3_MyD88 Rank (before) [8]: 2171

Now from value to sequence:

Rank (after) [3]: 424
Rank (before) [4]: 2396
Sequence: DWVLDYLLPNLERPAG

Rank (after) [3]: 425
Rank (before) [4]: 1033
Sequence: DWVWDYLLLSVFQTIFARRTE

P8_MyD88 Rank (after) [5]: 700
P8_MyD88 Rank (before) [6]: 2416
Sequence: DWVWDYLLPDLLGPAG

P8_MyD88 Rank (after) [7]: 579
P8_MyD88 Rank (before) [8]: 2447
Sequence: DWVWDYLLPKLECPSG

P8_MyD88 Rank (after) [9]: 260
P8_MyD88 Rank (before) [10]: 1038
Sequence: DWVWDYLLPNLEGPG

Rank (after) [1]: 995
Rank (before) [2]: 2450
Sequence: DWVWDYLLQILHARELF

P8_MyD88 Rank (after) [11]: 513
P8_MyD88 Rank (before) [12]: 2472
Sequence: DWVWEHFVGIEDHIK

P8_MyD88 Rank (after) [9]: 204
P8_MyD88 Rank (before) [10]: 306
Sequence: DWVYNELIAHLENTEH

P8_MyD88 Rank (after) [11]: 510
P8_MyD88 Rank (before) [12]: 2544
Sequence: DYANSSWALDELWLIL

P8_MyD88 Rank (after) [5]: 746
P8_MyD88 Rank (before) [6]: 2543
Sequence: DYASNTFLLRELLQIA

P8_MyD88 Rank (after) [9]: 262
P8_MyD88 Rank (before) [10]: 693
Sequence: DYASSSWYLDELVHILW

Rank (after) [3]: 434
Rank (before) [4]: 1060
Sequence: DYASSTWWLRELLYA

Rank (after) [3]: 159
Rank (before) [4]: 171
Population [13]: 0.00809%
Sequence: DYTSSPWALEELLKIM

P8_MyD88 Rank (after) [5]: 697
P8_MyD88 Rank (before) [6]: 3174
Sequence: EDSIFYAVSSGALDEP

Rank (after) [3]: 173
Rank (before) [4]: 198
Sequence: EDTLIRLLVQRIMKEL

Rank (after) [3]: 174
Rank (before) [4]: 197
Sequence: EGFTGFLYEALTRYGI

Rank (after) [14]: 152
Rank (before) [15]: 2117
Sequence: EHHLDLPRGKAIKPAILG

Rank (after) [14]: 409
Rank (before) [15]: 2224
Sequence: EIVKFVLAKLVHLEHP

Rank (after) [1]: 956
Rank (before) [2]: 3183
Sequence: ELDFSHFWLFDAGGDAAI

Population [13]: 0.0154%
Sequence: ELDFSHFWLFDAGGEA

Rank (after) [1]: 1003
Rank (before) [2]: 3187
Sequence: ELDFSHFWLFDGHATGAA

P8_MyD88 Rank (after) [9]: 218
P8_MyD88 Rank (before) [10]: 358
Sequence: ELDFSHFWLFDGQAT

Rank (after) [3]: 120
Rank (before) [4]: 174
Population [13]: 0.00809%
Sequence: ELDFSHFWLFDGQATGEA

P8_MyD88 Rank (after) [9]: 249
P8_MyD88 Rank (before) [10]: 477
Sequence: ELDGDFGRNLWDLWRL

Rank (after) [1]: 927
Rank (before) [2]: 3199
Sequence: EPPGLDWVYERLVVLF

Rank (after) [3]: 94
Rank (before) [4]: 478
Sequence: EPQDLDWFYERLVSLL

Rank (after) [1]: 1009
Rank (before) [2]: 3148
Sequence: EPQDLDWLYERLVSLF

Rank (after) [14]: 446
Rank (before) [15]: 2130
Sequence: EWIREHLRLALKERLP

P3_MyD88 Rank (after) [11]: 503
P3_MyD88 Rank (before) [12]: 2131
Sequence: EWIREQFRRALKERLP

Rank (after) [14]: 144
Rank (before) [15]: 649
Sequence: EWIREQLRPALEKAGKL

Population [16]: 0.00437%
Sequence: EWIREQLRPALKEHLP

Population [16]: 0.00466%
Sequence: EWIREQLRPALKERLP

P3_MyD88 Rank (after) [7]: 619
P3_MyD88 Rank (before) [8]: 2151
Sequence: EWIREQLRPALKERMT
